Test results from patent US6362212B1, “Oxime derivative and bactericide containing the same as active ingredient” (Shionogi & Company, Ltd., priority 1994, dated 2002).

What was measured:
[1] = system: Pyricularia oryzae; format: in vivo; conditions: foliage spray on rice seedlings (cv. […]), number of lesions six days after the inoculation
[2] = system: Botrytis cinerea; test: Controlling effect on Botrytis cinerea by foliage application (pot experiment); format: in vivo; conditions: foliage spray on cucumber (cv. TSUKUBASHIROIBO) first leaves, mycelial disks, lesion diameter after 3 days in moist chamber at 20° C.
Protocol: The following Test Examples illustrate the effects of the fungicide of the present invention. (I. Controlling effects on various plant diseases by foliage application (pot experiment)) A test compound was dissolved in a small amount of N,N-dimethylformamide, and the solution was diluted to a given concentration with distilled water containing a spreader. Thus, a liquid sample to be tested was prepared. The liquid sample was sprayed to test plants, and 24 hours thereafter, pathogens were inoculated by the method described below. […] The seeds of cucumber ([…]) were sown in plastic cups (each 9 cm in diameter), followed by cultivation for 2 to 3 weeks. The test compound in the form of a solution or suspension was sprayed to the surface of their first leaves, and mycelial disks (4 mm φ) of Botrytis cinerea cultured on the potato sucrose agar medium were put on the leaf surfaces to inoculate. the cucumber seedlings with the pathogen. The plants were kept in a moist chamber at 20° C. for 3 days. The diameter of the lesions on the leaves was measured and the percent control was calculated.

[3] = system: Erysiphe graminis f. sp. tritici; test: Controlling effect on Erysiphe graminis f. sp. tritici by foliage application (pot experiment); format: in vivo; conditions: foliage spray on wheat (cv. NORIN No. 61) seedlings, infected area after 10 days in greenhouse at 20° C.; for pest or weed control at 500 ppm: Blumeria graminis, foliar, 240 h, read-out: Controlling effect on ErYsiphe graminis f. sp. tritici by foliage application at 500 ppm (percent control)
Summary of the method: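 Wheat seedlings (cv. NORIN No. 61, 2-3 weeks old) sprayed with compound in DMF diluted in water with spreader, then inoculated with conidia 24 hours later. Kept in greenhouse at 20 °C for 10 days; percent control calculated from infected leaf area.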

[4] = system: Puccinia coronata; test: Controlling effect on Puccinia coronata by foliage application (pot experiment); format: in vivo; conditions: foliage spray on oat (cv. PC-38) seedlings, infected area after 1 day moist chamber and 8 days greenhouse at 20° C.
Summary of the method: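 Oat seedlings (cv. PC-38, 2–3 weeks old) were sprayed with compound in DMF diluted with spreader-containing water, then inoculated 24 h later with P. coronata spores diluted in talc. Plants were held 1 day in a moist chamber at 20° C, then 8 days in a greenhouse at 20° C; percent control came from infected leaf area.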

[5] = system: Sphaerotheca fuliginea; test: Controlling effect on Sphaerotheca fuliginea by foliage application (pot experiment); format: in vivo; conditions: foliage spray on cucumber (cv. TSUKUBASHIROIBO) first leaves, infected area after 10 days in greenhouse at 20° C.; for pest or weed control at 500 ppm: Podosphaera fuliginea, in Cucumis sativus, foliar, 240 h, read-out: Controlling effect on Sphaerotheca fuliginea by foliage application at 500 ppm (percent control)
Summary of the method: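 First leaves of cucumber seedlings, 2-3 weeks old, were sprayed with compound (DMF solution diluted in water with spreader). They were inoculated 24 h later with a Sphaerotheca fuliginea conidia spray and kept 10 days at 20° C in a greenhouse. Percent control was calculated from infected leaf area.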

[6] = system: Pseudoperonospora cubensis; test: Controlling effect on Pseudoperonospora cubensis by foliage application (pot experiment); format: in vivo; conditions: foliage spray on cucumber (var. TSUKUBASHIROIBO) first leaves, lesion area after 10 days in moist chamber at 20° C.
Summary of the method: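 Cucumber plants grown 2–3 weeks were sprayed on first leaves with compound (DMF solution diluted in water with spreader); 24 h later, Pseudoperonospora cubensis zoosporangia suspension dropped on leaves. Plants held in moist chamber at 20° C for 10 days; lesion area observed and percent control calculated.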

SMILES	Controlling effect on PYricularia orYzae by foliage application at 500 ppm (percent control) [1]	Controlling effect on Botrytis cinerea by foliage application at 500 ppm (percent control) [2]	Controlling effect on ErYsiphe graminis f. sp. tritici by foliage application at 500 ppm (percent control) [3]	Controllng effect on Puccinia coronata by foliage application at 500 ppm (percent control) [4]	Controlling effect on Sphaerotheca fuliginea by foliage application at 500 ppm (percent control) [5]	pest or weed control at 500 ppm [5]	melting point	pest or weed control at 500 ppm [3]	Controlling effect on Pseudoperonospora cubensis by foliage application at 500 ppm (percent control) [6]
CCON=C(c1ccccc1COc1ccccc1)n1ccnc1 [Compound No. 61]	97 percent control	100 percent control	97 percent control	97 percent control	–	–	–	–	–
CON=C(c1ccccc1COc1ccc(Cl)cc1)n1ccnc1 [Compound No. 7]	97 percent control	100 percent control	100 percent control	97 percent control	100 percent control	–	–	–	–
CON=C(c1ncon1)c1ccccc1COc1ccc(Cl)cc1 [Compound No. 807, 2-(4-chlorophenoxymethyl)phenyl 1,2,4-oxadiazol-3-yl ketone O-methyloxime]	–	–	–	–	–	100%	107 to 108 °C	–	–
CON=C(c1ccccc1COc1ccccc1)n1ccnc1 [Compound No. 1]	90 percent control	100 percent control	90 percent control	97 percent control	100 percent control	–	–	–	–
CON=C(c1ccccc1COc1ccccc1)n1cncc1C [compound 201]	90 percent control	70 percent control	90 percent control	90 percent control	100 percent control	–	–	–	–
CON=C(c1ccccc1COc1ccc(C)cc1)n1ccnc1 [Compound No. 15]	90 percent control	100 percent control	97 percent control	100 percent control	100 percent control	–	–	–	–
CON=C(c1nnn(C)n1)c1ccccc1COc1cc(C)ccc1C [Compound No. 2036, 2-(2,5-dimethylphenoxymethyl)phenyl 2-methyl-2H-tetrazol-5-yl ketone O-methyloxime]	–	–	–	–	–	100%	131 to 132 °C	90%	–
CON=C(c1ccccc1COc1ccccc1Cl)n1ccnc1 [Compound No. 5]	97 percent control	70 percent control	90 percent control	90 percent control	100 percent control	–	–	–	–
CON=C(c1ccccc1COc1c(C)cccc1C)n1ccnc1 [compound 40]	90 percent control	70 percent control	97 percent control	70 percent control	100 percent control	–	–	–	–
OC(c1ccc(Cl)cc1)(c1cncnc1)c1ccccc1Cl (stereo not shown) [Fenarimol, reference compound]	–	97 percent control	–	97 percent control	–	97%	–	97%	–
CCON=C(c1ccccc1COc1ccccc1)n1cncc1C [compound 215]	70 percent control	97 percent control	90 percent control	90 percent control	100 percent control	–	–	–	–
CON=C(c1ccccc1COc1ccccc1C)n1ccnc1 [Compound No. 13]	90 percent control	70 percent control	90 percent control	97 percent control	100 percent control	–	–	–	–
CON=C(c1ccccc1COc1ccccc1Cl)n1cncc1C [compound 205]	90 percent control	70 percent control	–	70 percent control	100 percent control	–	–	–	–
CON=C(c1nnco1)c1ccccc1COc1cc(C)ccc1C [Compound No. 736, 2-(2,5-dimethylphenoxymethyl)phenyl 1,3,4-oxadiazol-2-yl ketone O-methyloxime]	–	–	–	100 percent control	–	100%	134 to 135 °C	100%	–
C=CCON=C(c1ccccc1COc1ccccc1)n1ccnc1 [Compound No. 81]	97 percent control	90 percent control	97 percent control	97 percent control	–	–	–	–	–
CON=C(c1ccccc1COc1ccc(Cl)cc1)n1cncc1C [compound 207]	90 percent control	100 percent control	100 percent control	97 percent control	100 percent control	–	–	–	–
CON=C(c1ccccc1COc1cccc(Cl)c1)n1cncc1C [compound 206]	90 percent control	97 percent control	90 percent control	97 percent control	100 percent control	–	–	–	–
CON=C(c1cc(C)no1)c1ccccc1CON=C(C)c1ccc(Cl)c(Cl)c1 [compound 2528, 2-(3,4-dichloro-α-methylbenzylideneaminooxymethyl)phenyl 3-methylisoxazol-5-yl ketone O-methyloxime]	–	–	–	–	–	100%	84 to 85 °C	–	100 percent control
CON=C(c1cc(C)no1)c1ccccc1COc1ncc(C(F)(F)F)cc1Cl [Compound No. 690, 2-(3-chloro-5-trifluoromethyl-2-pyridyloxymethyl)phenyl 3-methylisoxazol-5-yl ketone O-methyloxime]	–	–	–	–	–	–	77 to 79 °C	–	–
